Measured values from PMC10396955, “2-Oxabicyclo[2.1.1]hexanes as saturated bioisosteres of the ortho-substituted phenyl ring” (Nature Chemistry, 2023).
Values after ≈ are worked out from the molar mass of the structure shown. Read-outs that look alike come from different tables or passages of the source.

Legend:
[1] = Chemical stability of carboxylic acids (acid, base, storage); assay type: physicochemical; conditions: room temperature, one day
Excerpt: We also checked the chemical stability of three representative carboxylic acids, 1b, 19b and 22b (Table 2), because we suspected that some of them could decompose via a retro-Michael-type reaction. […] All products were crystalline solids, and we stored all of them in closed vials at room temperature on the shelf.

[2] = Kinetic solubility in phosphate-buffered saline, pH 7.4; assay type: physicochemical; conditions: phosphate-buffered saline, 25 °C, pH 7.4, aqueous buffer, kinetic from dmso stock
Protocol: Analysis of Aqueous Solubility […]
compound (Ondansetron) were assessed for kinetic solubility in phosphate-buffered saline, pH […]
Phosphate buffered saline, pH 7.4 (Sigma-Aldrich, USA; Cat #P3813) […]
MultiScreen HTS 96 Well Filter Plates (Millipore, Ireland; Cat # MSGVS2210) […]
Matrix Multichannel Electronic Pipette 2-125 µL, 5-250 µL, 15-1250 µL (Thermo Scientific, […]
Vacuum pump (Millipore, USA; Model # XX5500000)
The measurements were performed using SpectraMax Plus reader in UV-Vis mode. Acquisition and analysis of the data were performed using SoftMax Pro v.5.4 (Molecular Devices) and Excel […]
Kinetic solubility assay was performed according to the Enamine’s aqueous solubility SOP.
Briefly, using a 20 mM stock solution of the compound in 100% DMSO dilutions were prepared to a theoretical concentration of 400 μM in duplicates in phosphate-buffered saline pH 7.4 […]
for two hours and then filtered through HTS filter plates using a vacuum manifold. The filtrates of test compounds were diluted 2-fold with acetonitrile with 2% DMSO before measuring.
In parallel, compound dilutions in acetonitrile/PBS (1:1) were prepared to theoretical […]
DMSO to generate calibration curves. Ondansetron was used as reference compound to control proper assay performance. 200 μl of each sample was transferred to 96-well plate and measured in 200-550 nm range with 5 nm step.
The concentrations of compounds in PBS filtrate are calculated using a dedicated Microsoft Excel calculation script. Proper absorbance wavelengths for calculations are selected for each compound manually based on absorbance maximums (absolute absorbance unit values for the minimum and maximum concentration points within 0 – 3 OD range). Each of the final datasets is additionally visually evaluated by the operator and goodness of fit (R2) is calculated for each calibration curve. The effective range of this assay is approximately 2-400 μM and the […]

physchem = assay type: physicochemical; conditions: for D (partition ratio), incubation 1 / D (partition ratio), incubation 2 / D (partition ratio), incubation 3: Table S2, n-octanol/PBS pH 7.4
Protocol: Determination of Distribution Coefficient (LogD, pH 7.4) […]
n-octanol – phosphate buffered saline (PBS), pH 7.4. Distribution coefficient (or LogD) is a […]
Phosphate buffered saline, tablet (Sigma-Aldrich, USA; Cat # P4417)
Acetic acid (Enamine, Ukraine.)
DMSO stock solutions of the test compounds 10mM
Gradient HPLC system (Shimadzu, Japan)
MTR22 Multi Mix Rotator (UNICO, USA)
Laboratory Centrifuge, Sigma 4-15C, Qiagen (SIGMA GmbH, Germany) […]
allowed to mix in a rotator for 1 h at 30 rpm. Phase separation was assured by centrifugation for […]
dilution. The samples (both phases) were analyzed using a HPLC system coupled with a tandem mass spectrometer. Mebendazole was used as a reference compound. […]
where: SO – peak area of the analyte in octanol phase
S P – peak area of the analyte in PBS buffer do – dilution coefficient for octanol phase dp – dilution coefficient for aqueous phase

[3] = Metabolic stability in human liver microsomes; assay type: in vitro ADME; conditions: both sexes; for half-life at 2 µM: read-out: t1/2; for k el at 2 µM: elimination constant, read-out: kel (converted)
Protocol: (§1) The data acquisition and system control was performed using Analyst 1.6.3 software from AB Sciex. Methods Microsomal incubations were carried out in 96-well plates in 5 aliquots of 30 μL each (one for each time point). […] In the control reactions the NADPH-cofactor system was substituted with phosphate buffer. […] Each reaction was performed in duplicates. Five time points over 40 minutes were analyzed. The reactions were stopped by adding 4 volumes of methanol containing internal standard to incubation aliquots, followed by protein sedimentation by centrifuging at 5500 rpm for 4 minutes. […]. Supernatants were analyzed using the HPLC system coupled with tandem mass spectrometer. […] In some cases, the last time point is excluded from the calculations to ensure acceptable logarithmic linearity of decay.

human liver microsomes = experiment: Metabolic stability in human liver microsomes; assay type: in vitro ADME
Protocol: as §1

[4] = Table S1, incubation 1, read-out: PBS solubility, pH 7.4, Incubation 1
[5] = Table S1, incubation 2, read-out: PBS solubility, pH 7.4, Incubation 2
[6] = Table S1, mean of 2 incubations, 2 h, 2% DMSO, effective range approx. 2-400 μM, read-out: PBS solubility, pH 7.4, Mean
[7] = experimental kinetic solubility in phosphate-buffered saline at pH 7.4, Fig. 3, read-out: Solubility
[8] = pH 7.4, LogD, pH 7.4, incubation 1
[9] = pH 7.4, LogD, pH 7.4, incubation 2
[10] = pH 7.4, LogD, pH 7.4, incubation 3
[11] = human, liver microsomes, pH 7.4, human liver microsomes, 2 μM, 37 °C, with NADPH, 7 min
[12] = human, liver microsomes, pH 7.4, human liver microsomes, 2 μM, 37 °C, with NADPH, 15 min
[13] = human, liver microsomes, pH 7.4, human liver microsomes, 2 μM, 37 °C, with NADPH, read-out: % Remaining, Mean of 2
[14] = human, liver microsomes, pH 7.4, human liver microsomes, 0.42 mg protein per ml, Table S3, * approximate due to high stability, read-out: Clint
[15] = human, liver microsomes, pH 7.4, human liver microsomes, * approximate due to high stability
[16] = pH 7.4, human liver microsomes, no NADPH cofactor, ** instability partially or completely not determined by CYP450 activity, read-out: % Remaining without cofactor, Mean of 2
[17] = pH 7.4, human liver microsomes, * approximate due to high stability
[18] = human, liver microsomes, pH 7.4, human liver microsomes, Fig. 3, read-out: CIint, intrinsic clearance

| SMILES | solubility at 2 h [2, 4] | solubility at 2 h [2, 5] | solubility at 2 h [2, 6] | solubility at 2 h [2, 7] | D (partition ratio), incubation 1 (physchem) | D (partition ratio), incubation 2 (physchem) | D (partition ratio), incubation 3 (physchem) | logD at 1 h (physchem; pH 7.4, LogD, pH 7.4 (mean)) | logD at 1 h (physchem; [8]) | logD at 1 h (physchem; [9]) | logD at 1 h (physchem; [10]) | logD at 1 h (physchem; pH 7.4, logD (7.4)) | remaining at […], 2 µM [3, 11] | remaining at […], 2 µM [3, 12] | remaining at 25 min, 2 µM [3, 13] | remaining at 40 min, 2 µM [3, 13] | microsomal CLint at 2 µM [3, 14] | half-life at 2 µM [3, 15] | remaining at 40 min, 2 µM [3, 16] | k el at 2 µM [3, 17] | further results |
| --- | --- | --- | --- | --- | --- | --- | --- | --- | --- | --- | --- | --- | --- | --- | --- | --- | --- | --- | --- | --- | --- |
| O=C(O)C1C2CC1(c1ccccc1)CO2 (centres unmarked) [Compound 1b] | – | – | – | – | – | – | – | – | – | – | – | – | – | – | – | – | – | – | – | – | chemical stability ([1]; aqueous 1 M hydrochloric acid): did not lead to any decomposition; chemical stability ([1]; aqueous 1 M sodium hydroxide): did not lead to any decomposition |
| O=C(NC1CCN(CCCCC2(C(=O)NCC(F)(F)F)c3ccccc3-c3ccccc32)CC1)[C@@H]1[C@@H]2CC[C@@]1(c1ccc(C(F)(F)F)cc1)C2 (relative stereo) [Compound 34] | 2 µM (≈ 1.4 µg/mL) | 2 µM (≈ 1.4 µg/mL) | 2 µM (≈ 1.4 µg/mL) | 2 ± 0.2 µM (≈ 1.4 µg/mL) | 3.53E+08 | 3.40E+06 | 1.71E+05 | > 4.5 | > 4.5 | > 4.5 | > 4.5 | > 4.5 | 76% | 41% | 21% | 8% | 157 µL/min/mg | 10.6 min | 91% | 0.00108 s⁻¹ | CIint, intrinsic clearance (human liver microsomes; human liver microsomes): 157 µL/min/mg |
| O=C(O)[C@@H]1[C@@H]2CC[C@@]1(C(=O)Nc1ccc(S(=O)(=O)Nc3nccs3)cc1)C2 (relative stereo) [Compound 32] | 151 µM (≈ 61.5 µg/mL) | 164 µM (≈ 66.8 µg/mL) | 158 µM (≈ 64.4 µg/mL) | 101 µM (≈ 41.2 µg/mL) | 8.13E-02 | 3.23E-02 | 2.75E-02 | < 1 | < 1 | < 1 | < 1 | < 1 | 97% | 97% | 99% | 100% | – | – | 89% | – | metabolic stability (in words) (human liver microsomes; human liver microsomes): metabolically stable |
| O=C(O)C1C2CC1(C(=O)Nc1ccc(S(=O)(=O)Nc3nccs3)cc1)CO2 (centres unmarked) [Compound 33] | 100 µM (≈ 40.9 µg/mL) | 102 µM (≈ 41.8 µg/mL) | 101 µM (≈ 41.4 µg/mL) | 158 µM (≈ 64.7 µg/mL) | 2.39E-01 | 1.93E-02 | 5.50E-01 | -0.87 | -0.62 | -1.72 | -0.26 | < 1 | 111% | 111% | 109% | 106% | ~1 µL/min/mg | ~1190 min | 92% | – | microsomal CLint at 2 µM [3, 18]: 1 µL/min/mg; metabolic stability (in words) (human liver microsomes; human liver microsomes): metabolically stable |
| O=C(O)Cc1ccccc1Nc1c(Cl)cccc1Cl [Diclofenac, reference compound] | – | – | – | – | – | – | – | – | – | – | – | – | – | – | – | – | – | – | – | – | kel (human liver microsomes; both, human, 2 µM, pH 7.4): 0.115 min⁻¹; Clint (human liver microsomes; both, human, microsomes, 2 µM, pH 7.4): 276 µL/min/mg; % Remaining, Mean of 2 (human liver microsomes; both, human, microsomes, 25 min, 2 µM, pH 7.4): 8% |

Continued, in another order:

| solubility at 2 h [2, 4] | solubility at 2 h [2, 5] | solubility at 2 h [2, 6] | solubility at 2 h [2, 7] | D (partition ratio), incubation 1 (physchem) | D (partition ratio), incubation 2 (physchem) | D (partition ratio), incubation 3 (physchem) | logD at 1 h (physchem; pH 7.4, LogD, pH 7.4 (mean)) | logD at 1 h (physchem; [8]) | logD at 1 h (physchem; [9]) | logD at 1 h (physchem; [10]) | logD at 1 h (physchem; pH 7.4, logD (7.4)) | remaining at […], 2 µM [3, 11] | remaining at […], 2 µM [3, 12] | remaining at 25 min, 2 µM [3, 13] | remaining at 40 min, 2 µM [3, 13] | microsomal CLint at 2 µM [3, 14] | half-life at 2 µM [3, 15] | remaining at 40 min, 2 µM [3, 16] | k el at 2 µM [3, 17] | SMILES | further results |
| --- | --- | --- | --- | --- | --- | --- | --- | --- | --- | --- | --- | --- | --- | --- | --- | --- | --- | --- | --- | --- | --- |
| 3 µM (≈ 2.08 µg/mL) | 3 µM (≈ 2.08 µg/mL) | 3 µM (≈ 2.08 µg/mL) | 3 ± 0.1 µM (≈ 2.08 µg/mL) | 5.98E+08 | 3.42E+05 | 6.79E+04 | > 4.5 | > 4.5 | > 4.5 | > 4.5 | > 4.5 | 97% | 89% | 49% | 46% | 55 µL/min/mg | 30.4 min | 88% | 0.000383 s⁻¹ | O=C(NC1CCN(CCCCC2(C(=O)NCC(F)(F)F)c3ccccc3-c3ccccc32)CC1)c1ccccc1-c1ccc(C(F)(F)F)cc1 [Lomitapide, reference compound] | CIint, intrinsic clearance (human liver microsomes; human liver microsomes): 55 µL/min/mg |
| 2 µM (≈ 1.4 µg/mL) | 4 µM (≈ 2.8 µg/mL) | 3 µM (≈ 2.1 µg/mL) | – | 1.46E+05 | 1.62E+05 | 8.88E+04 | > 4.5 | > 4.5 | > 4.5 | > 4.5 | > 4.5 | 102% | 77% | 36% | 29% | 87 µL/min/mg | 19.2 min | 84% | 0.0006 s⁻¹ | O=C(NC1CCN(CCCCC2(C(=O)NCC(F)(F)F)c3ccccc3-c3ccccc32)CC1)[C@@H]1[C@H]2C[C@]1(c1ccc(C(F)(F)F)cc1)CO2 (relative stereo) [Compound 35] | CIint, intrinsic clearance (human liver microsomes; human liver microsomes): 87 µL/min/mg |
| 169 µM (≈ 68.2 µg/mL) | 171 µM (≈ 69 µg/mL) | – | 170 µM (≈ 68.6 µg/mL) | 2.09E-01 | 8.99E-02 | 4.17E-02 | -1.04 | -0.68 | -1.05 | -1.38 | < 1 | 97% | 101% | 101% | 96% | ~2 µL/min/mg | ~960 min | 124% | ~1.67e-05 s⁻¹ | O=C(O)c1ccccc1C(=O)Nc1ccc(S(=O)(=O)Nc2nccs2)cc1 [Phthalylsulfathiazole, reference compound] | microsomal CLint at 2 µM [3, 18]: 2 µL/min/mg; metabolic stability (in words) (human liver microsomes; human, microsomes): metabolically stable |
| – | – | – | – | 1.27E+03 | 1.32E+03 | 1.33E+03 | 3.12 | 3.1 | 3.12 | 3.12 | – | – | – | – | – | – | – | – | – | COC(=O)Nc1nc2ccc(C(=O)c3ccccc3)cc2[nH]1 [Mebendazole, reference compound] | – |
